Assay results: patent US10900014B2, “Long-term storage medium for culturing obligate anaerobic bacteria or microaerobic bacteria under aerobic environment, and method of detecting obligate anaerobic bacteria or microaerobic bacteria using said medium” (Kanto Kagaku Kabushiki Kaisha, priority 2015, dated 2021)
Where “and” joins values, the source holds several entries; their conditions need not be identical. Equal values may be shown once. Read-outs that look alike come from different tables or passages of the source.

System: C. difficile
Format: cell-based
Details: 37° C. 24 h; for concentration added at which a mass of bacteria and the surrounding medium exhibited yellow color / concentration added at which a mass of bacteria exhibited yellow color / concentration added at which a mass of bacteria was found: added to medium of Table 1

O[C@H](CS)[C@H](O)CS (racemic) [dithiothreitol]
concentration added at which a mass of bacteria and the surrounding medium exhibited yellow color: 0.6 g/L and 0.9 g/L
concentration added at which a mass of bacteria exhibited yellow color: 0.16 to 1.2 g/L
concentration added at which a mass of bacteria was found: 0.075 to 1.5 g/L
Yellow coloration degree (dithiothreitol added 0.075 g/L): 1
Yellow coloration degree (dithiothreitol added 0.16 g/L): 2
Yellow coloration degree (dithiothreitol added 0.32 g/L): 2
Yellow coloration degree (dithiothreitol added 0.60 g/L): 3
Yellow coloration degree (dithiothreitol added 0.90 g/L): 3
Yellow coloration degree (dithiothreitol added 1.2 g/L): 2
Yellow coloration degree (dithiothreitol added 1.5 g/L): 1
Yellow coloration degree (dithiothreitol added 1.8 g/L): 0

O=C1O[C@H]([C@@H](O)CO)C(O)=C1O [ascorbic acid]
concentration added at which a mass of bacteria and the surrounding medium exhibited yellow color: 0.32 to 1.8 g/L
concentration added at which a mass of bacteria exhibited yellow color: 0.16 to 2.7 g/L
concentration added at which a mass of bacteria was found: 0.075 to 3.6 g/L
Yellow coloration degree (ascorbic acid added 0.075 g/L): 1
Yellow coloration degree (ascorbic acid added 0.16 g/L): 2
Yellow coloration degree (ascorbic acid added 0.32 g/L): 3
Yellow coloration degree (ascorbic acid added 0.64 g/L): 3
Yellow coloration degree (ascorbic acid added 1.8 g/L): 3
Yellow coloration degree (ascorbic acid added 2.7 g/L): 2
Yellow coloration degree (ascorbic acid added 3.6 g/L): 1
Yellow coloration degree (ascorbic acid added 4.5 g/L): 0
